Test results as given in ChEMBL document CHEMBL4507283, “Data for DCP probe BI-1935” (2021).

Tests used:
[1] = molecular target: Cyclin-dependent kinase-like 5 (Homo sapiens) (UniProt O76039); settings: Compound concentration 1000.0 nM
[2] = molecular target: Tyrosine-protein kinase JAK1 (Homo sapiens) (UniProt P23458); settings: Compound concentration 1000.0 nM
[3] = molecular target: 5-hydroxytryptamine receptor 6 (Homo sapiens) (UniProt P50406); settings: Compound concentration 10.0 uM
[4] = molecular target: Receptor-type tyrosine-protein kinase FLT3 (Homo sapiens) (UniProt P36888); settings: Compound concentration 1000.0 nM
Receptor-type tyrosine-protein kinase FLT3 (Homo sapiens), sequence (P36888 whole entry): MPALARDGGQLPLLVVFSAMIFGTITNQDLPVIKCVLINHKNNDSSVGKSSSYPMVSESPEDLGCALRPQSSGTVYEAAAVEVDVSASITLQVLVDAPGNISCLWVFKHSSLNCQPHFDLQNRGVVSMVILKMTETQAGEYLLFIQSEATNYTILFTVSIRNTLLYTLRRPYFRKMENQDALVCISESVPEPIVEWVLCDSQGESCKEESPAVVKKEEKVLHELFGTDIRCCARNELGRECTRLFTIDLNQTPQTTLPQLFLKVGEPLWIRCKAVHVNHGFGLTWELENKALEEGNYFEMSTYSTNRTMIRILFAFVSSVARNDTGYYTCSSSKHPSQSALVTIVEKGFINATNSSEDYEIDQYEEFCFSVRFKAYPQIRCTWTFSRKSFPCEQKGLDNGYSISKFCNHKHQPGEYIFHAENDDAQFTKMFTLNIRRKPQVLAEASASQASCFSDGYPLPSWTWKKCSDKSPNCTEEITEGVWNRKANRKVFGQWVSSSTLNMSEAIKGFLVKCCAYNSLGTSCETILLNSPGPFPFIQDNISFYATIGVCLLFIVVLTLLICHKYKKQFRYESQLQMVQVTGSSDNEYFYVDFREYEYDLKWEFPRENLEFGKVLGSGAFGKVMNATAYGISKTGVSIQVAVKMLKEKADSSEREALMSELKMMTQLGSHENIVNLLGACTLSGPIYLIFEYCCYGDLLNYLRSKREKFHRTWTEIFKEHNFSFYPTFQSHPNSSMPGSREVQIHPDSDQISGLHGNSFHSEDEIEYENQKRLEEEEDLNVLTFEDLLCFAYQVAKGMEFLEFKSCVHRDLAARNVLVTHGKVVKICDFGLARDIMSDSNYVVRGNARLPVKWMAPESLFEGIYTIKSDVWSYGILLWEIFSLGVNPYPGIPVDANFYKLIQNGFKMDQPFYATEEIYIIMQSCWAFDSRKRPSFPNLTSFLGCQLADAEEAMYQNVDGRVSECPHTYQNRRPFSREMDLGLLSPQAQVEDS

[5] = molecular target: Alpha-1A adrenergic receptor (Homo sapiens) (UniProt P35348); settings: Compound concentration 10.0 uM
[6] = molecular target: Sodium-dependent dopamine transporter (Homo sapiens, UniProt Q01959); test: DATRANS/H Eurofins-Panlabs selectivity data (BI); settings: Compound concentration 10.0 uM
[7] = molecular target: Calcium/calmodulin-dependent protein kinase type II subunit gamma (Homo sapiens) (UniProt Q13555); settings: Compound concentration 1000.0 nM
[8] = molecular target: Tyrosine-protein kinase HCK (Homo sapiens) (UniProt P08631); settings: Compound concentration 1000.0 nM
Tyrosine-protein kinase HCK (Homo sapiens), sequence (P08631 2-526 limits assumed): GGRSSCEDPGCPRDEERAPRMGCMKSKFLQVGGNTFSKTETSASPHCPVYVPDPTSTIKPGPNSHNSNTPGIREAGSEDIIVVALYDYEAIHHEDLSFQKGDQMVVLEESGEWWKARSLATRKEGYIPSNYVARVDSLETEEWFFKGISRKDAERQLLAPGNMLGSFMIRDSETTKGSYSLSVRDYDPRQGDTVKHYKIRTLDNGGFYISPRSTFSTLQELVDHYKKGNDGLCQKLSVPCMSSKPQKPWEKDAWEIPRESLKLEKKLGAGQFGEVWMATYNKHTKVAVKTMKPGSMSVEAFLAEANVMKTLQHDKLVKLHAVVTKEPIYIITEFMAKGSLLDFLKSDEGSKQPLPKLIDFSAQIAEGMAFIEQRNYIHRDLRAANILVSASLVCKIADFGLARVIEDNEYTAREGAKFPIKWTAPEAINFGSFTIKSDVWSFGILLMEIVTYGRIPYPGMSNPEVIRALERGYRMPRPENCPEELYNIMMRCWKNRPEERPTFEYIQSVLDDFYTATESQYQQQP

[9] = molecular target: Serine/threonine-protein kinase Sgk1 (Homo sapiens) (UniProt O00141); settings: Compound concentration 1000.0 nM
[10] = molecular target: Wee1-like protein kinase (Homo sapiens) (UniProt P30291); settings: Compound concentration 1000.0 nM
[11] = molecular target: Mitogen-activated protein kinase 1 (Homo sapiens) (UniProt P28482); settings: Compound concentration 1000.0 nM
Mitogen-activated protein kinase 1 (Homo sapiens), sequence (P28482 whole entry): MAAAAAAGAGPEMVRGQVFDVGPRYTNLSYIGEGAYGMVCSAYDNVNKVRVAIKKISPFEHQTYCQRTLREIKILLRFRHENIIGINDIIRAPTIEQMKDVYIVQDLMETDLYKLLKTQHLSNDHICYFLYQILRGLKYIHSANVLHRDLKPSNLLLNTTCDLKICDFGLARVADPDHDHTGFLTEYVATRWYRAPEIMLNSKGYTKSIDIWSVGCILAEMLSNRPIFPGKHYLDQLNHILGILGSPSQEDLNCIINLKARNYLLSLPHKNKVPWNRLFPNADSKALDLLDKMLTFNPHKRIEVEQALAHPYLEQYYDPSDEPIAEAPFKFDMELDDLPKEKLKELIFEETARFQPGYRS

[12] = molecular target: Type-2 angiotensin II receptor (Homo sapiens) (UniProt P50052); test: AT2/HU Eurofins-Panlabs selectivity data (BI); settings: Compound concentration 10.0 uM
Type-2 angiotensin II receptor (Homo sapiens), sequence (P50052 whole entry): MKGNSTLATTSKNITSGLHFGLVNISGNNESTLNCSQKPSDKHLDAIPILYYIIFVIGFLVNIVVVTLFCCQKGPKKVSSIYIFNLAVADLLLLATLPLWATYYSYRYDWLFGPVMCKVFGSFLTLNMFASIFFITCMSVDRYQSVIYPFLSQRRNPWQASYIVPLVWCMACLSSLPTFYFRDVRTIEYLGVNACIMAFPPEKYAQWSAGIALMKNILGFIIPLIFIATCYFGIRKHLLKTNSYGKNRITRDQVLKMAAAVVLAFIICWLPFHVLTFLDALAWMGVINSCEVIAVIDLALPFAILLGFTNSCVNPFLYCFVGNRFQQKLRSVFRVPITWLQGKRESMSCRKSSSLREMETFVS

[13] = molecular target: Maternal embryonic leucine zipper kinase (Homo sapiens) (UniProt Q14680); settings: Compound concentration 1000.0 nM
[14] = molecular target: Histamine H1 receptor (Homo sapiens) (UniProt P35367); settings: Compound concentration 10.0 uM
[15] = molecular target: NT-3 growth factor receptor (Homo sapiens) (UniProt Q16288); settings: Compound concentration 1000.0 nM
[16] = molecular target: TRAF2 and NCK-interacting protein kinase (Homo sapiens) (UniProt Q9UKE5); settings: Compound concentration 1000.0 nM
[17] = molecular target: Phosphatidylinositol 5-phosphate 4-kinase type-2 gamma (Homo sapiens) (UniProt Q8TBX8); settings: Compound concentration 1000.0 nM
[18] = molecular target: 3',5'-cyclic-AMP phosphodiesterase 4A (Homo sapiens) (UniProt P27815); test: PDE-IV/HU Eurofins-Panlabs selectivity data (BI); settings: Compound concentration 10.0 uM
Rattus norvegicus = species: Rattus norvegicus; settings: Compound concentration 10.0 uM
[19] = molecular target: Serine/threonine-protein kinase pim-3 (Homo sapiens) (UniProt Q86V86); settings: Compound concentration 1000.0 nM
[20] = molecular target: Phosphatidylinositol 4,5-bisphosphate 3-kinase catalytic subunit alpha isoform (Homo sapiens) (UniProt P42336); settings: Compound concentration 1000.0 nM
[21] = molecular target: Hepatocyte growth factor receptor (Homo sapiens) (UniProt P08581); settings: Compound concentration 1000.0 nM
[22] = molecular target: Receptor-interacting serine/threonine-protein kinase 2 (Homo sapiens) (UniProt O43353); settings: Compound concentration 1000.0 nM
Receptor-interacting serine/threonine-protein kinase 2 (Homo sapiens), sequence (O43353 whole entry): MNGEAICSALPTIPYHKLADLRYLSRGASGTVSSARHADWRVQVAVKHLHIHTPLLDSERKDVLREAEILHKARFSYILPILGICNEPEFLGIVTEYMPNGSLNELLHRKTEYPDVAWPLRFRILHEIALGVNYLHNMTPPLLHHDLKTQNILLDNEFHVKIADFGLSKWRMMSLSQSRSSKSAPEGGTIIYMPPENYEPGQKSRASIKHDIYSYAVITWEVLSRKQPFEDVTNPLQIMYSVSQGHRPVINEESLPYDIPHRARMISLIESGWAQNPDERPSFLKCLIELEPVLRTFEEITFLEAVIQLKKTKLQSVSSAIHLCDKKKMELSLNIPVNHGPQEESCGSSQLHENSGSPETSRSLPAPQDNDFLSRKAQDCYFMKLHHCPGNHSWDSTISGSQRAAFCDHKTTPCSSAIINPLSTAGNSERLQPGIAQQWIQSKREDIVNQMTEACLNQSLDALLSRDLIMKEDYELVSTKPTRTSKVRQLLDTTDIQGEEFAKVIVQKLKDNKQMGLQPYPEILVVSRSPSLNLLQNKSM

[23] = molecular target: Dual serine/threonine and tyrosine protein kinase (Homo sapiens) (UniProt Q6XUX3); settings: Compound concentration 1000.0 nM
[24] = molecular target: 5-hydroxytryptamine receptor 4 (Cavia porcellus) (UniProt O70528); test: 5HT4/GPIG Eurofins-Panlabs selectivity data (BI); settings: Compound concentration 10.0 uM
[25] = molecular target: Serine/threonine-protein kinase PLK1 (Homo sapiens) (UniProt P53350); settings: Compound concentration 1000.0 nM
[26] = molecular target: Dual specificity mitogen-activated protein kinase kinase 2 (Homo sapiens) (UniProt P36507); settings: Compound concentration 1000.0 nM
[27] = molecular target: Tyrosine-protein kinase ITK/TSK (Homo sapiens) (UniProt Q08881); settings: Compound concentration 1000.0 nM
[28] = molecular target: Serine/threonine-protein kinase SIK3 (Homo sapiens) (UniProt Q9Y2K2); settings: Compound concentration 1000.0 nM
[29] = molecular target: Interleukin-1 receptor-associated kinase 4 (Homo sapiens) (UniProt Q9NWZ3); settings: Compound concentration 1000.0 nM
[30] = molecular target: Serine/threonine-protein kinase LATS2 (Homo sapiens) (UniProt Q9NRM7); settings: Compound concentration 1000.0 nM
[31] = molecular target: Focal adhesion kinase 1 (Homo sapiens) (UniProt Q05397); settings: Compound concentration 1000.0 nM
[32] = molecular target: Macrophage colony-stimulating factor 1 receptor (Homo sapiens) (UniProt P07333); settings: Compound concentration 1000.0 nM
[33] = molecular target: Cyclin-dependent kinase 2 (Homo sapiens) (UniProt P24941); settings: Compound concentration 1000.0 nM
Renin (Homo sapiens) = Renin (Homo sapiens) (UniProt P00797); test: RENIN (HU) Eurofins-Panlabs selectivity data (BI); settings: Compound concentration 10.0 uM
Renin (Homo sapiens), sequence (P00797 whole entry): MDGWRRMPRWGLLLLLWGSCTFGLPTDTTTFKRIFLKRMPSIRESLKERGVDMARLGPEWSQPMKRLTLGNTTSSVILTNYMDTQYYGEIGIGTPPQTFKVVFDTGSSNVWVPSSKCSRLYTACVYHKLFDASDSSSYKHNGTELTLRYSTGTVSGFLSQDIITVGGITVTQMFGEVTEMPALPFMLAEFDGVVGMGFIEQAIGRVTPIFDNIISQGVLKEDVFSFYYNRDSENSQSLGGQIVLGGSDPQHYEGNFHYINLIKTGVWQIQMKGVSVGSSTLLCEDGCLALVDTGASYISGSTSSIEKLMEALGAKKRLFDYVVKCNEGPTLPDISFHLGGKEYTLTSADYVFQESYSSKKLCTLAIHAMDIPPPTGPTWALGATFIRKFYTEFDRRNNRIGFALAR

[34] = molecular target: Calcium/calmodulin-dependent protein kinase type II subunit beta (Homo sapiens) (UniProt Q13554); settings: Compound concentration 1000.0 nM
Calcium/calmodulin-dependent protein kinase type II subunit beta (Homo sapiens), sequence (Q13554 whole entry, canonical isoform): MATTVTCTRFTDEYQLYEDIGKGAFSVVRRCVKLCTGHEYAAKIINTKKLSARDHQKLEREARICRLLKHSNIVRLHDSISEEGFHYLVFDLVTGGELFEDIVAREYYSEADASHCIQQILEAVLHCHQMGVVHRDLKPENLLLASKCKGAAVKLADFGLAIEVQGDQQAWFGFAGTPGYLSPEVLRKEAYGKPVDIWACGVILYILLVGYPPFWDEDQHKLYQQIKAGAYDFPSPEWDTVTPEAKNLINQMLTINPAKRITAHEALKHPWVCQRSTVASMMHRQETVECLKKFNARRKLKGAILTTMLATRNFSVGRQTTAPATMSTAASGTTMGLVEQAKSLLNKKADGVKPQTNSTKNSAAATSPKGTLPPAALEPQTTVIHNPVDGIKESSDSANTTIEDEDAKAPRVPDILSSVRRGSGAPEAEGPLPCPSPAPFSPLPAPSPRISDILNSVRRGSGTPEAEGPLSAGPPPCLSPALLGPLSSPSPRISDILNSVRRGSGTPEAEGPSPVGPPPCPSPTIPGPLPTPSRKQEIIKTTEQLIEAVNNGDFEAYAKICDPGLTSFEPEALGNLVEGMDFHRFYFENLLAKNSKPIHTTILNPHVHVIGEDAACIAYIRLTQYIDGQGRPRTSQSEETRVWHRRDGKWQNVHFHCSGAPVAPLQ

[35] = molecular target: Casein kinase I isoform epsilon (Homo sapiens) (UniProt P49674); settings: Compound concentration 1000.0 nM
[36] = molecular target: Mitogen-activated protein kinase kinase kinase kinase 1 (Homo sapiens) (UniProt Q92918); settings: Compound concentration 1000.0 nM
[37] = molecular target: Serine/threonine-protein kinase D3 (Homo sapiens) (UniProt O94806); settings: Compound concentration 1000.0 nM
[38] = molecular target: Mu-type opioid receptor (Homo sapiens) (UniProt P35372); settings: Compound concentration 10.0 uM
[39] = molecular target: D(4) dopamine receptor (Homo sapiens) (UniProt P21917); test: D4.2/H Eurofins-Panlabs selectivity data (BI); settings: Compound concentration 10.0 uM
[40] = molecular target: Tyrosine-protein kinase JAK3 (Homo sapiens) (UniProt P52333); settings: Compound concentration 1000.0 nM
Tyrosine-protein kinase JAK3 (Homo sapiens), sequence (P52333 whole entry): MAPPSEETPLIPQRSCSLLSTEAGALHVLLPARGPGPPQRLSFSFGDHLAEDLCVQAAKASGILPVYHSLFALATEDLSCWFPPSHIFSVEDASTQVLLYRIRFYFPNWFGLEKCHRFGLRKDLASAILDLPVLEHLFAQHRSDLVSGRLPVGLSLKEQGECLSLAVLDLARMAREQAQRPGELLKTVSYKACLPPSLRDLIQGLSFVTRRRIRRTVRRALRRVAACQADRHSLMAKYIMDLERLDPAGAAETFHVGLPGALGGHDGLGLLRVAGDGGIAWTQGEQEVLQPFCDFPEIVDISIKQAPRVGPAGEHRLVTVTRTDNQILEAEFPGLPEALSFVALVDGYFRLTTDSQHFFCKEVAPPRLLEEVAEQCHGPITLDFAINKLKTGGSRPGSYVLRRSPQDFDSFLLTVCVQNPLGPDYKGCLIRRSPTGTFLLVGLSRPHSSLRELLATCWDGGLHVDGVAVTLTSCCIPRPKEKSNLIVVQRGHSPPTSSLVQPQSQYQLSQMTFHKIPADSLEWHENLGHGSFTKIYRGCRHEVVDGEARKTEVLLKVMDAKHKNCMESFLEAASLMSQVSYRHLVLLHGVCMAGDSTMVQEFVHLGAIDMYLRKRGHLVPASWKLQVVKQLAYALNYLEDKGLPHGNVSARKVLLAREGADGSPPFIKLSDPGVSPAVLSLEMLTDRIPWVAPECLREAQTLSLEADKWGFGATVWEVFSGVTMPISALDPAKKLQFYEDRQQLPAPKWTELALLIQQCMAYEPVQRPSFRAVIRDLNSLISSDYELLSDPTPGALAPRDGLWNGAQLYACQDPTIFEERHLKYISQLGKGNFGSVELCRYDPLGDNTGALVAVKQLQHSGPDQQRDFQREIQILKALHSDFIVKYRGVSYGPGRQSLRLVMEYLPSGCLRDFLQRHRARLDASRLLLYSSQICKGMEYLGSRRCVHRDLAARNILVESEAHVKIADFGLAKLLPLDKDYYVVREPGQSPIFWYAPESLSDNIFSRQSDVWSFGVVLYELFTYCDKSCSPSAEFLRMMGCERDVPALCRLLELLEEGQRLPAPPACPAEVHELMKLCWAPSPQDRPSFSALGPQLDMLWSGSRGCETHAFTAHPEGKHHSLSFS

[41] = molecular target: Serine/threonine-protein kinase WNK3 (Homo sapiens) (UniProt Q9BYP7); settings: Compound concentration 1000.0 nM
[42] = molecular target: Death-associated protein kinase 3 (Homo sapiens) (UniProt O43293); settings: Compound concentration 1000.0 nM
[43] = tested on: ALK tyrosine kinase receptor (Homo sapiens), Q9UM73 [L1196M]; settings: Compound concentration 1000.0 nM
[44] = molecular target: Casein kinase II subunit alpha (Homo sapiens) (UniProt P68400); settings: Compound concentration 1000.0 nM

`CCOCCn1cc(C(=O)Nc2ccc(-n3nc(-c4cccnc4)cc3C(F)(F)F)cn2)ccc1=O` [BI 1935] gave a residual activity [1] of 90%, a residual activity [2] of 37% and an inhibition [3] of 0.656%. The residual activity [4] was 63%, the inhibition [5] was 29.3% and the residual activity [6] was 98%. For the same compound, the residual activity [7] was 100%, the residual activity [8] was 93% and the residual activity [9] was 83%. For the same compound, the residual activity [10] was 100%, the residual activity [11] was 100% and the residual activity [12] was 97%. For the same compound, the residual activity [13] was 93%, the inhibition [14] was 12.2% and the residual activity [15] was 100%. For the same compound, the residual activity [16] was 100%, the residual activity [17] was 100% and the residual activity [18] was 86%. For the same compound, the inhibition (Rattus norvegicus) was -5.52%, the residual activity [19] was 90% and the residual activity [20] was 92%. It also gave a residual activity [21] of 95%, a residual activity [22] of 71% and a residual activity [23] of 61%. For the same compound, the residual activity [24] was 103%, the residual activity [25] was 100% and the residual activity [26] was 94%. It also gave a residual activity [27] of 83%, a residual activity [28] of 92% and a residual activity [29] of 96%. The residual activity [30] was 65%, the residual activity [31] was 100% and the residual activity [32] was 100%. For the same compound, the residual activity [33] was 100%, the residual activity (Renin (Homo sapiens)) was 94% and the residual activity [34] was 90%. For the same compound, the residual activity [35] was 100%, the residual activity [36] was 81% and the residual activity [37] was 81%. For the same compound, the inhibition [38] was 2.68%, the residual activity [39] was 103% and the residual activity [40] was 100%. It also gave a residual activity [41] of 76%, a residual activity [42] of 91% and a residual activity [43] of 73%. For the same compound, the residual activity [44] was 70%.
